Test results as given in ChEMBL document CHEMBL1201862, “PubChem BioAssay data set” (2004).
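In this assay, cells in 96-well plates receive the compound at five concentrations for 48 hours. Endpoints are linearly interpolated between the surrounding concentrations. GI50: concentration for 50% inhibition of growth.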 Activity calls are given as the source filed them. Rule as the data show it: active = GI50 up to about 1.1 µM and inactive = higher.

Key:
Test in all cases: NCI anticancer screen, dose series, 48 h
786-0 = system: 786-0
A549 = system: A549
ACHN = system: ACHN
BT-549 = system: BT-549
CAKI-1 = system: CAKI-1
CCRF-CEM = system: CCRF-CEM
COLO 205 = system: COLO 205
DU-145 = system: DU-145
EKVX = system: EKVX
HCC 2998 = system: HCC 2998
HCT-116 = system: HCT-116
HCT-15 = system: HCT-15
HL-60 = system: HL-60
HOP-62 = system: HOP-62
HOP-92 = system: HOP-92
HT-29 = system: HT-29
Hs-578T = system: Hs-578T
IGROV-1 = system: IGROV-1
KM12 = system: KM12
LOX IMVI = system: LOX IMVI
M14 = system: M14
MCF7 = system: MCF7
MDA-MB-231 = system: MDA-MB-231
MDA-MB-435 = system: MDA-MB-435
MDA-N = system: MDA-N
MOLT-4 = system: MOLT-4
NCI-H226 = system: NCI-H226
NCI-H23 = system: NCI-H23
NCI-H460 = system: NCI-H460
NCI-H522 = system: NCI-H522
NCI/ADR-RES = system: NCI/ADR-RES
OVCAR-3 = system: OVCAR-3
OVCAR-4 = system: OVCAR-4
OVCAR-5 = system: OVCAR-5
OVCAR-8 = system: OVCAR-8
PC-3 = system: PC-3
RXF 393 = system: RXF 393
SF-268 = system: SF-268
SF-295 = system: SF-295
SF-539 = system: SF-539
SK-MEL-28 = system: SK-MEL-28
SK-MEL-2 = system: SK-MEL-2
SK-MEL-5 = system: SK-MEL-5
SK-OV-3 = system: SK-OV-3
SN12C = system: SN12C
SNB-19 = system: SNB-19
SNB-75 = system: SNB-75
SW-620 = system: SW-620
TK-10 = system: TK-10
U-251 = system: U-251
UACC-257 = system: UACC-257
UACC-62 = system: UACC-62
UO-31 = system: UO-31

For `Cc1cccc(C)c1NC(=O)/C(CC(=O)CC(c1ccccc1)c1c(O)c2ccccc2oc1=O)=N/O` (stereo not drawn), the GI50 (786-0) was > 100 µM (inactive), the GI50 (A549) was > 100 µM (inactive) and the GI50 (ACHN) was > 100 µM (inactive). For the same molecule, the GI50 (BT-549) was > 100 µM (inactive), the GI50 (CAKI-1) was > 100 µM (inactive) and the GI50 (CCRF-CEM) was > 100 µM (inactive). For the same molecule, the GI50 (COLO 205) was > 100 µM (inactive), the GI50 (DU-145) was > 100 µM (inactive) and the GI50 (EKVX) was > 100 µM (inactive). For the same molecule, the GI50 (HCC 2998) was > 100 µM (inactive), the GI50 (HCT-116) was > 100 µM (inactive) and the GI50 (HCT-15) was greater than 100 µM. The GI50 (HL-60) was > 100 µM (inactive), the GI50 (HOP-62) was > 100 µM (inactive) and the GI50 (HOP-92) was 31.3 µM (inactive). The GI50 (HT-29) was > 100 µM (inactive), the GI50 (Hs-578T) was > 100 µM (inactive) and the GI50 (IGROV-1) was > 100 µM (inactive). The GI50 (KM12) was > 100 µM (inactive), the GI50 (LOX IMVI) was > 100 µM (inactive) and the GI50 (M14) was > 100 µM (inactive). For the same molecule, the GI50 (MCF7) was > 100 µM (inactive), the GI50 (MDA-MB-231) was > 100 µM (inactive) and the GI50 (MDA-MB-435) was > 100 µM (inactive). The GI50 (MDA-N) was > 100 µM (inactive), the GI50 (MOLT-4) was > 100 µM (inactive) and the GI50 (NCI-H226) was > 100 µM (inactive). The GI50 (NCI-H23) was > 100 µM (inactive), the GI50 (NCI-H460) was > 100 µM (inactive) and the GI50 (NCI-H522) was > 100 µM (inactive). For the same molecule, the GI50 (NCI/ADR-RES) was > 100 µM (inactive), the GI50 (OVCAR-3) was > 100 µM (inactive) and the GI50 (OVCAR-4) was > 100 µM (inactive). The GI50 (OVCAR-5) was > 100 µM (inactive), the GI50 (OVCAR-8) was > 100 µM (inactive) and the GI50 (PC-3) was > 100 µM (inactive). For the same molecule, the GI50 (RXF 393) was > 100 µM (inactive), the GI50 (SF-268) was > 100 µM (inactive) and the GI50 (SF-295) was > 100 µM (inactive). The GI50 (SF-539) was > 100 µM (inactive), the GI50 (SK-MEL-28) was > 100 µM (inactive) and the GI50 (SK-MEL-2) was > 100 µM (inactive). For the same molecule, the GI50 (SK-MEL-5) was > 100 µM (inactive), the GI50 (SK-OV-3) was > 100 µM (inactive) and the GI50 (SN12C) was > 100 µM (inactive). The GI50 (SNB-19) was > 100 µM (inactive), the GI50 (SNB-75) was > 100 µM (inactive) and the GI50 (SW-620) was > 100 µM (inactive). For the same molecule, the GI50 (TK-10) was > 100 µM (inactive), the GI50 (U-251) was > 100 µM (inactive) and the GI50 (UACC-257) was > 100 µM (inactive). The GI50 (UACC-62) was > 100 µM (inactive) and the GI50 (UO-31) was > 100 µM (inactive).
